A short description of series [1]: In vivo kinetics after intravitreal injection of bolus implant in rabbit eyes (LC/MS, retina). Particulars: for residual drug in recovered bolus/implants: bolus formulation of native peptide.
A further series has as its system carboxyesterase. In words: Cleavage of prodrug ester bond by carboxyesterase in vitro. The class given is in vitro ADME. Particulars: 37° C., carboxyesterase 0.1 μg/mL. The protocol: One specific example of EY005-prodrug includes EY005-stearyl (depicted in FIG. 27A), wherein EY005 is linked via ester bond to stearyl alcohol, one member from the group of long-chain saturated fatty alcohols. On cleavage of the ester bond, the prodrug EY005-stearyl releases the EY005 MTT. […] Upon addition of EY005-stearyl prodrug to phosphate-buffered saline solution at 37° C. without esterase, the ester bond of the EY005-stearyl prodrug cleaves more slowly (˜36 hours) by hydrolysis (FIG. 28C).
EY005-stearyl was incubated at 37° C. in vitro with carboxyesterase (0.1 μg/mL), to simulate the ocular physiologic environment and the type of esterase that is readily abundant within the vitreous. […] Upon addition of EY005-stearyl prodrug to phosphate-buffered saline solution at 37° C. without esterase, the ester bond of the EY005-stearyl prodrug cleaves more slowly by hydrolysis (FIG. 28C).
In some examples of prodrugs, cleavage and release of the free API can be assessed in an in vitro release assay, wherein the prodrug is incubated in a solution containing carboxyesterase (or other natural or synthetic esterase), isolated vitreous recovered from animal (e.g., pig, rabbit, etc.), or isolated vitreous recovered from human donor, at […], […], or other temperatures. […]

Series [2] in a line: In vitro to in vivo correlation of fluocinolone acetonide release, rabbit eyes. Particulars: formulations in multiphasic colloidal suspension. As to the method:
Properties of Kd and binding capacity were calculated for each FA-complex particulate, in dispersal medium (FIG. 15). […] FIG. 16B illustrates other formulations, wherein varying the ratio of drug-complex particulates altered the kinetics of release, as the proportion of complexation agent (KET) with higher avidity (Kd) was increased across the formulations, for a given payload of FA.
The depicted curves reflect in vitro release profiles, while the individual colored points, circled, represent in vivo release data from rabbit eyes.

For series [3] the following is noted: flowable bolus implant, multiple time points.
A short description of series [4]: Sunitinib malate bio-erodible tube implant, drug levels in retina tissue of rabbits. The class given is in vivo, rabbit. The text has this:
In another example, formulations of the hydrophilic small molecule sunitinib malate in the multiphasic colloidal suspension were developed (FIGS. 20-22). […] Complexation of sunitinib to selected complexation agents was visually confirmed by admixture and pulldown of sunitinib-complex particulates, which was confirmed since by the yellow-orange color of particulates (sunitinib has orange coloration) (FIG. 21).
In another example, formulations of the hydrophilic small molecule sunitinib malate in the multiphasic colloidal suspension were developed. […] Complexation of sunitinib to selected complexation agents was visually confirmed by admixture and pulldown of sunitinib-complex particulates, which was confirmed since by the yellow-orange color of particulates (sunitinib has orange coloration). Formulations of sunitinib with two-phase release kinetics in a bio-erodible tube formulation of sunitinib multiphasic colloidal suspension were designed and manufactured. […] Alteration of the ratio of sunitinib-complex particulates reduced the amount of drug released during initial burst and lowered the steady state release.

Molecules are shown by their SMILES. Entries after “also recorded” stand apart in the source; their conditions may differ. Read-outs that look alike come from different tables or passages of the source. Non-standard residues stand in square brackets, D forms with d. Residues, ends and D or L forms follow the SMILES beside them. *: point of attachment. Dmt = Cc1cc(O)cc(C)c1C[C@H](N)C(=O)O; X1 = CCCCCCCCCCCCCCCCCCO*

For the compound `Cc1cc(O)cc(C)c1C[C@H](NC(=O)[C@H](N)CCCNC(=N)N)C(=O)N[C@@H](CCCCN)C(=O)N[C@@H](Cc1ccccc1)C(=O)O` [EY005, H-d-Arg-DMT-Lys-Phe] (H-[dR][Dmt]KF-OH; C-terminus assumed), in series [1] (bolus formulation of native API administered into the vitreous), the “time beyond which no detectable tissue levels” value is no more than 21 days. Also, the “residual drug in recovered bolus/implants” value in series [1] (rabbits, listed as EY005 native peptide) is “Recovered implants contained no EY005 native peptide”; in series [1] (rabbits, listed as native API), “no residual drug in the recovered bolus”. In series [1] (by week 3.5, identical bolus formulation, rabbits), the tissue concentrations result was “nearly undetectable”.

On to `CCCCCCCCCCCCCCCCCCOC(=O)[C@H](Cc1ccccc1)NC(=O)[C@H](CCCCN)NC(=O)[C@H](Cc1c(C)cc(O)cc1C)NC(=O)[C@H](N)CCCNC(=N)N` [EY005-stearyl, H-d-Arg-DMT-Lys-Phe(O)-stearyl] (H-[dR][Dmt]KF-X1), for which the “cleavage of the prodrug ester bond, releasing EY005 (HPLC)” value in the series with carboxyesterase is on record as “rapid cleavage of the prodrug ester bond”.

For `CC1(C)O[C@@H]2C[C@H]3[C@@H]4C[C@H](F)C5=CC(=O)C=C[C@]5(C)[C@@]4(F)[C@@H](O)C[C@]3(C)[C@]2(C(=O)CO)O1` [FA, fluocinolone acetonide], the “correlation between drug release in vitro and in vivo (retina tissue levels)” value in series [2] was “strong correlation”; in series [2] (listed as fluocinolone acetonide), “good in vitro to in vivo correlation”.

As for `CNC(=O)c1ccccc1Sc1ccc2c(/C=C/c3ccccn3)n[nH]c2c1` [axitinib], the “drug levels in retina tissue” value in series [3] is given as “detectable drug levels in retina tissue”.

On to `CCN(CC)CCNC(=O)c1c(C)[nH]c(/C=C2\C(=O)Nc3ccc(F)cc32)c1C` [sunitinib malate], for which, in series [4] (bio-erodible tube formulation), the “release kinetics (pharmacokinetics) and tissue levels of tube formulation” value is “produced desired tissue levels and durability of release; also recorded: two-phase release with high initial burst, followed by steady-state release”. In series [4] (low and high dose implants, multiple time points), the “drug levels in retina tissue” value was “detectable drug levels in retina tissue”.

(Values after patent US20240269320A1, “EXTENDED RELEASE DRUG DELIVERY SYSTEM FOR OCULAR DRUGS AND METHODS OF USE” (Eyedea Bio, LLC, priority 2021, published 2024).)
